What was measured:
[1] = test system: antibodies in sera from SARS patients (sera 1a, 1b, 2, 6, 37, 62, London, SARS-yellow, SARS-green); assay type: binding, human; parameters: Binding of serum 6 to linear peptides of protein X1 of SARS-CoV Urbani / Binding of serum 37 to linear peptides of protein X1 of SARS-CoV Urbani / Binding of serum 6 to looped/cyclic peptide (PEPSCAN-ELISA) / Binding of serum 37 to looped/cyclic peptide (PEPSCAN-ELISA) / Binding of serum 37 to looped/cyclic peptides of protein X1 of SARS-CoV Urbani / Binding of serum 6 to linear peptides of protein X2 / Binding of serum 37 to linear peptides of protein X2 / Binding of serum 37 to looped/cyclic peptides of protein X2 of SARS-CoV Urbani / Binding of serum 6 to linear peptides of protein M of SARS-CoV Urbani / Binding of serum 37 to linear peptides of protein M of SARS-CoV Urbani / Binding of serum 6 to looped/cyclic peptides of protein M of SARS-CoV Urbani / Binding of serum 37 to looped/cyclic peptides of protein M of SARS-CoV Urbani / Binding of serum 6 to linear peptides of protein X3 of SARS-CoV Urbani / Binding of serum 37 to linear peptides of protein X3 of SARS-CoV Urbani / Binding of serum 37 to looped/cyclic peptides of protein X3 of SARS-CoV Urbani / Binding of serum 6 to linear peptides of protein X4 of SARS-CoV Urbani / Binding of serum 37 to linear peptides of protein X4 of SARS-CoV Urbani / Binding of serum 37 to looped/cyclic peptides of protein X4 of SARS-CoV Urbani / Binding of serum 6 to linear peptides of protein X5 of SARS-CoV Urbani / Binding of serum 37 to linear peptides of protein X5 of SARS-CoV Urbani / Binding of serum 37 to looped/cyclic peptides of protein X5 of SARS-CoV Urbani / Binding of serum 6 to linear peptides of protein N of SARS-CoV Urbani / Binding of serum 37 to linear peptides of protein N of SARS-CoV Urbani / Binding of serum 6 to linear peptide (PEPSCAN-ELISA) / Binding of serum 1a to looped/cyclic peptides of protein N of SARS-CoV Urbani / Binding of serum 1b to looped/cyclic peptides of protein N of SARS-CoV Urbani / Binding of serum 2 to looped/cyclic peptides of protein N of SARS-CoV Urbani / Binding of serum 6 to looped/cyclic peptides of protein N of SARS-CoV Urbani / Binding of serum 37 to looped/cyclic peptides of protein N of SARS-CoV Urbani / Binding of serum 62 to looped/cyclic peptides of protein N of SARS-CoV Urbani / Binding of serum London to looped/cyclic peptides of protein N of SARS-CoV Urbani / Binding of serum SARS-green to looped/cyclic peptides of protein N of SARS-CoV Urbani: unit not given here
[2] = test system: control sera (pooled serum of ten healthy LUMC hospital workers; commercial negative donor pooled serum from the Dutch bloodbank); assay type: binding, human; parameters: Binding of Control serum LUMC to linear peptides / Binding of Control serum Blood-bank to linear peptides / Binding of Control serum LUMC to looped peptides / Binding of Control Serum Blood-Bank to Looped peptides / Binding of Control serum LUMC to linear peptides of the protein M of SARS-CoV Urbani / Binding of Control serum Blood-bank to linear peptides of the protein M of SARS-CoV Urbani / Binding of Control serum LUMC to looped peptides of the protein M of SARS-CoV Urbani / Binding of Control Serum Blood-Bank to Looped peptides of the protein M of SARS-CoV Urbani: unit not given here
[3] = test system: rabbit serum obtained by immunizing a rabbit with the SARS-CoV strain Frankfurt 1; assay type: binding; parameters: Binding of a rabbit serum to linear peptides / Binding of a rabbit serum to looped peptides / Rabbit serum linear peptides / Rabbit serum looped peptides / Binding of a rabbit serum to linear peptides of protein N of SARS-CoV Urbani (Rabbit serum linear peptides) / Binding of a rabbit serum to looped/cyclic peptides of protein N of SARS-CoV Urbani (Rabbit serum looped peptides): unit not given here

With IDGSSGVANPAMDPI the “Binding of serum 1a to linear peptides of protein X1 of SARS-CoV Urbani” value [1] was 0.7, the “Binding of serum 1a to looped/cyclic peptides of protein X1 of SARS-CoV Urbani” value [1] was 0.8 and the “Binding of serum 1b to linear peptides of protein X1 of SARS-CoV Urbani” value [1] was 0.6. The “Binding of serum 1b to looped/cyclic peptides of protein X1 of SARS-CoV Urbani” value [1] was 0.7, the “Binding of serum 2 to linear peptides of protein X1 of SARS-CoV Urbani” value [1] was 0.7 and the “Binding of serum 2 to looped/cyclic peptides of protein X1 of SARS-CoV Urbani” value [1] was 0.5. For the same sequence, the “Binding of serum 6 to linear peptides of protein X1 of SARS-CoV Urbani” value [1] was 0.5, the “Binding of serum 6 to looped/cyclic peptides of protein X1 of SARS-CoV Urbani” value [1] was 0.3 and the “Binding of serum 37 to linear peptides of protein X1 of SARS-CoV Urbani” value [1] was 0.6. The “Binding of serum 37 to looped/cyclic peptides of protein X1 of SARS-CoV Urbani” value [1] was 0.7, the “Binding of serum 62 to linear peptides of protein X1 of SARS-CoV Urbani” value [1] was 0.6 and the “Binding of serum 62 to looped/cyclic peptides of protein X1 of SARS-CoV Urbani” value [1] was 0.6. The “Binding of serum London to linear peptides of protein X1 of SARS-CoV Urbani” value [1] was 0.4, the “Binding of serum SARS-green to linear peptides of protein X1 of SARS-CoV Urbani” value [1] was 0.3 and the “Binding of serum SARS-green to looped/cyclic peptides of protein X1 of SARS-CoV Urbani” value [1] was 0.6. For the same sequence, the “Binding of serum SARS-yellow to linear peptides of protein X1 of SARS-CoV Urbani” value [1] was 0.4, the “Binding of serum SARS-yellow to looped/cyclic peptides of protein X1 of SARS-CoV Urbani” value [1] was 0.4 and the “Binding of Control Serum Blood-Bank to Looped peptides” value [2] was 0.6. For the same sequence, the “Binding of Control serum Blood-bank to linear peptides” value [2] was 0.6, the “Binding of Control serum LUMC to linear peptides” value [2] was 0.6 and the “Binding of Control serum LUMC to looped peptides” value [2] was 0.7. For the same sequence, the “Binding of a rabbit serum to linear peptides” value [3] was 0.1 and the “Binding of a rabbit serum to looped peptides” value [3] was 0.5.

TFRIAIWNLDVIISS was tested, and the “Binding of serum 1a to linear peptides of protein X3 of SARS-CoV Urbani” value [1] was 0.8, the “Binding of serum 1a to looped/cyclic peptides of protein X3 of SARS-CoV Urbani” value [1] was 0.7 and the “Binding of serum 1b to linear peptides of protein X3 of SARS-CoV Urbani” value [1] was 0.5. The “Binding of serum 1b to looped/cyclic peptides of protein X3 of SARS-CoV Urbani” value [1] was 0.5, the “Binding of serum 2 to linear peptides of protein X3 of SARS-CoV Urbani” value [1] was 0.6 and the “Binding of serum 2 to looped/cyclic peptides of protein X3 of SARS-CoV Urbani” value [1] was 0.6. For the same sequence, the “Binding of serum 6 to linear peptides of protein X3 of SARS-CoV Urbani” value [1] was 0.5, the “Binding of serum 6 to looped/cyclic peptides of protein X3 of SARS-CoV Urbani” value [1] was 0.3 and the “Binding of serum 37 to linear peptides of protein X3 of SARS-CoV Urbani” value [1] was 0.6. The “Binding of serum 37 to looped/cyclic peptides of protein X3 of SARS-CoV Urbani” value [1] was 0.6, the “Binding of serum 62 to linear peptides of protein X3 of SARS-CoV Urbani” value [1] was 0.7 and the “Binding of serum 62 to looped/cyclic peptides of protein X3 of SARS-CoV Urbani” value [1] was 0.7. For the same sequence, the “Binding of serum London to linear peptides of protein X3 of SARS-CoV Urbani” value [1] was 0.7, the “Binding of serum London to looped/cyclic peptides of protein X3 of SARS-CoV Urbani” value [1] was 0.2 and the “Binding of serum SARS-green to linear peptides of protein X3 of SARS-CoV Urbani” value [1] was 0.4. The “Binding of serum SARS-green to looped/cyclic peptides of protein X3 of SARS-CoV Urbani” value [1] was 0.2, the “Binding of serum SARS-yellow to linear peptides of protein X3 of SARS-CoV Urbani” value [1] was 0.6 and the “Binding of serum SARS-yellow to looped/cyclic peptides of protein X3 of SARS-CoV Urbani” value [1] was 0.5. The “Binding of Control Serum Blood-Bank to Looped peptides of the protein X3 of SARS-CoV Urbani” value [2] was 0.8, the “Binding of Control serum Blood-bank to linear peptides of the protein X3 of SARS-CoV Urbani” value [2] was 0.8 and the “Binding of Control serum LUMC to linear peptides of the protein X3 of SARS-CoV Urbani” value [2] was 0.7. For the same sequence, the “Binding of Control serum LUMC to looped peptides of the protein X3 of SARS-CoV Urbani” value [2] was 0.6, the “Rabbit serum linear peptides” value [3] was 0.3 and the “Rabbit serum looped peptides” value [3] was 0.4.

With STHFAFACADGTRHT the “Binding of serum 1a to linear peptides of protein X4 of SARS-CoV Urbani” value [1] was 0.7, the “Binding of serum 1a to looped/cyclic peptides of protein X4 of SARS-CoV Urbani” value [1] was 0.7 and the “Binding of serum 1b to linear peptides of protein X4 of SARS-CoV Urbani” value [1] was 0.6. The “Binding of serum 1b to looped/cyclic peptides of protein X4 of SARS-CoV Urbani” value [1] was 0.5, the “Binding of serum 2 to linear peptides of protein X4 of SARS-CoV Urbani” value [1] was 0.5 and the “Binding of serum 2 to looped/cyclic peptides of protein X4 of SARS-CoV Urbani” value [1] was 0.6. For the same sequence, the “Binding of serum 6 to linear peptides of protein X4 of SARS-CoV Urbani” value [1] was 0.7, the “Binding of serum 6 to looped/cyclic peptides of protein X4 of SARS-CoV Urbani” value [1] was 0.5 and the “Binding of serum 37 to linear peptides of protein X4 of SARS-CoV Urbani” value [1] was 0.7. The “Binding of serum 37 to looped/cyclic peptides of protein X4 of SARS-CoV Urbani” value [1] was 0.6, the “Binding of serum 62 to linear peptides of protein X4 of SARS-CoV Urbani” value [1] was 0.8 and the “Binding of serum 62 to looped/cyclic peptides of protein X4 of SARS-CoV Urbani” value [1] was 0.5. For the same sequence, the “Binding of serum London to linear peptides of protein X4 of SARS-CoV Urbani” value [1] was 0.8, the “Binding of serum London to looped/cyclic peptides of protein X4 of SARS-CoV Urbani” value [1] was 0.3 and the “Binding of serum SARS-green to linear peptides of protein X4 of SARS-CoV Urbani” value [1] was 0.6. For the same sequence, the “Binding of serum SARS-green to looped/cyclic peptides of protein X4 of SARS-CoV Urbani” value [1] was 0.5, the “Binding of serum SARS-yellow to linear peptides of protein X4 of SARS-CoV Urbani” value [1] was 0.3 and the “Binding of serum SARS-yellow to looped/cyclic peptides of protein X4 of SARS-CoV Urbani” value [1] was 0.6. The “Binding of Control Serum Blood-Bank to Looped peptides” value [2] was 0.7, the “Binding of Control serum Blood-bank to linear peptides” value [2] was 0.6 and the “Binding of Control serum LUMC to linear peptides” value [2] was 0.5. The “Binding of Control serum LUMC to looped peptides” value [2] was 0.9, the “Rabbit serum linear peptides” value [3] was 0.4 and the “Rabbit serum looped peptides” value [3] was 0.4.
